Test results as given in US20240424109A1, “GLUCOSE-[…] CONJUGATES COMPRISING A TETRA-VALENT SUGAR CLUSTER FOR TREATMENT OF DIABETES” (Merck Sharp & Dohme LLC, priority 2021, published 2024).

Tests used:
[1] = target: T1, human insulin receptor type B (IR(B)) (Homo sapiens, UniProt P06213); test: Insulin receptor competition binding assay (125[I]-insulin; whole cell or SPA)
T1 construct: expressed in transfected cells; host or cells: CHO cells (G418 selection)
Experimental: Method D: IR binding assay was run in a scintillation proximity assay (SPA) in 384-well format using cell membranes prepared from CHO cells overexpressing human IR(B) grown in F12 media containing 10% FBS and antibiotics (G418, Penicillin/[…]).
(§1) The in vitro biological activities towards insulin receptor (IR) were measured by either ligand competition assays or functional phosphorylation assays, as described above, labeled as following: Method A: IR phosphorylation assay based on 96-well; Method B: IR phosphorylation assay based on 384-well with automated liquid dispense; Method C: cell-based IR binding assay; Method D: SPA IR binding assay method E; Method E: MRC1 assay was performed in a 96-well plate; Method F: MRC1 assay was performed in a 384-well plate.

[2] = target: T2, Human macrophage mannose receptor 1 (MRC1) (Homo sapiens, UniProt P22897); test: Human macrophage mannose receptor 1 (MRC1) competition binding assay; conditions: competition against Eu-labeled mannosylated-BSA
T2 sequence (P22897 19-1456): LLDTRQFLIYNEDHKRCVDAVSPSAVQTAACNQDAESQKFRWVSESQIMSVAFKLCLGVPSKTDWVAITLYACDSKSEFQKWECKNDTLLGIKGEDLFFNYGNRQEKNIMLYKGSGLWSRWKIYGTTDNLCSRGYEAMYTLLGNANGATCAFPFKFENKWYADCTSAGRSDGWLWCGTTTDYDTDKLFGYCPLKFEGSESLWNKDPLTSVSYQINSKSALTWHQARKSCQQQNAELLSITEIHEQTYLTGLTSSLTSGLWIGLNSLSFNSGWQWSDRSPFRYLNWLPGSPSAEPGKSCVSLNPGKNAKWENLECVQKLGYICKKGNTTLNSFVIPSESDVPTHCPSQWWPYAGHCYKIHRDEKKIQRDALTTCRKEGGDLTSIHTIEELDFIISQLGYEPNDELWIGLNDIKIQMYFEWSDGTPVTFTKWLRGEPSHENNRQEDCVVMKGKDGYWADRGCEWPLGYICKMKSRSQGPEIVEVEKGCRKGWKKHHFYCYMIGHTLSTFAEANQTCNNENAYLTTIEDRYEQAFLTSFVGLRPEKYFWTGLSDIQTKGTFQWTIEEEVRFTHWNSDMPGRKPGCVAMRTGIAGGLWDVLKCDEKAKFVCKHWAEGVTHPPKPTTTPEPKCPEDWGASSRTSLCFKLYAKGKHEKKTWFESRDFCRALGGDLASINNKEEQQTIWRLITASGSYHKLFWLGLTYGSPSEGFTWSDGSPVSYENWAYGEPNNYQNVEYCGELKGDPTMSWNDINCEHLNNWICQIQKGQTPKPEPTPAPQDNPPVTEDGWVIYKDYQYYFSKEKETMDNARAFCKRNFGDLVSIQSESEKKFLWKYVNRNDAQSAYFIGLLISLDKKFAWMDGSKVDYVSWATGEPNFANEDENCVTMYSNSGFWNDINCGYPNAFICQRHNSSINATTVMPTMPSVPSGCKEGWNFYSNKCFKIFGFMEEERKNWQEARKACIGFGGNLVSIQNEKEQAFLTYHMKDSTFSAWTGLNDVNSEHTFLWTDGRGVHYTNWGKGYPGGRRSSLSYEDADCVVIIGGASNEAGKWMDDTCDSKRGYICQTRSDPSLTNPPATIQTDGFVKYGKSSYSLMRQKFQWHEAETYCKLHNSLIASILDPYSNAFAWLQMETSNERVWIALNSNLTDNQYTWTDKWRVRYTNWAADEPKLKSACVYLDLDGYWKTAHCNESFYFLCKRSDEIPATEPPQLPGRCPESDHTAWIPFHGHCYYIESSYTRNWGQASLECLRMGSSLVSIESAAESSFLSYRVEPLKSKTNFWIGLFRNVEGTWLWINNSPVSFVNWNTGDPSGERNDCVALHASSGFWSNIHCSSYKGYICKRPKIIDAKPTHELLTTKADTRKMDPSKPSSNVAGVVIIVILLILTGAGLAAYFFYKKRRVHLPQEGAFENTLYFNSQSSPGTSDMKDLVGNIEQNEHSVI
Experimental: The competition binding assay for MRC1 utilized a ligand, mannosylated-BSA labeled with the DELFIA Eu-N1-ITC reagent (labeling kit for europium labeling of proteins and polypetides for use in dissociation-enhanced time-resolved fluorometric assay), as reported in the literature. Assay was performed either in a 96-well plate with 100 μL well volume (Method E) or in a 384-well plate with 25 μL well volume (Method F). […] The antibody was incubated in the plate for 1 h at rt with shaking. The plate was washed with wash buffer 3-5 times followed by addition of MRC1 (2 ng/μl final concentration) in PBS containing 1% stabilizer BSA. The plate was incubated at rt with gentle shaking for 1 h. The plate was washed three times with wash buffer. […]
as §1

T1 sequence (P06213 28-758 limits assumed): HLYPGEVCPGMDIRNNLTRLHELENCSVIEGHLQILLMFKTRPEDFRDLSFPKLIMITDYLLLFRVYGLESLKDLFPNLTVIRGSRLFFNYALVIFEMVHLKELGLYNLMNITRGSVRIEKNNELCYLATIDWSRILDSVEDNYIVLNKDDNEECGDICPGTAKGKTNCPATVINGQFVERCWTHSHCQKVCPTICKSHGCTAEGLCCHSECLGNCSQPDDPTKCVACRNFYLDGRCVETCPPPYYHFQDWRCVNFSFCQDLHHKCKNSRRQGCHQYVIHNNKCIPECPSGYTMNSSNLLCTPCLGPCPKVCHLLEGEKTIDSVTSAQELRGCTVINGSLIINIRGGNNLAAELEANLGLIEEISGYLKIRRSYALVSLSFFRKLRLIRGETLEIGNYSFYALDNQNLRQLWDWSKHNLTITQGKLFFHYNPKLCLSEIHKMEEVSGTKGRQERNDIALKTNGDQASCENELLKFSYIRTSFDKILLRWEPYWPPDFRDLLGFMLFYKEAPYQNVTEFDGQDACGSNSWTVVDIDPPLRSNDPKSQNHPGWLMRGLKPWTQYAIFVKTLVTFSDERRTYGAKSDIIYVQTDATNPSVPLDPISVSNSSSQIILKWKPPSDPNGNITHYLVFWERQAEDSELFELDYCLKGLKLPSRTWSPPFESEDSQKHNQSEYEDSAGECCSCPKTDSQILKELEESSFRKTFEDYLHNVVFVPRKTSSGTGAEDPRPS
T1 sequence (P06213 763-1382 limits assumed): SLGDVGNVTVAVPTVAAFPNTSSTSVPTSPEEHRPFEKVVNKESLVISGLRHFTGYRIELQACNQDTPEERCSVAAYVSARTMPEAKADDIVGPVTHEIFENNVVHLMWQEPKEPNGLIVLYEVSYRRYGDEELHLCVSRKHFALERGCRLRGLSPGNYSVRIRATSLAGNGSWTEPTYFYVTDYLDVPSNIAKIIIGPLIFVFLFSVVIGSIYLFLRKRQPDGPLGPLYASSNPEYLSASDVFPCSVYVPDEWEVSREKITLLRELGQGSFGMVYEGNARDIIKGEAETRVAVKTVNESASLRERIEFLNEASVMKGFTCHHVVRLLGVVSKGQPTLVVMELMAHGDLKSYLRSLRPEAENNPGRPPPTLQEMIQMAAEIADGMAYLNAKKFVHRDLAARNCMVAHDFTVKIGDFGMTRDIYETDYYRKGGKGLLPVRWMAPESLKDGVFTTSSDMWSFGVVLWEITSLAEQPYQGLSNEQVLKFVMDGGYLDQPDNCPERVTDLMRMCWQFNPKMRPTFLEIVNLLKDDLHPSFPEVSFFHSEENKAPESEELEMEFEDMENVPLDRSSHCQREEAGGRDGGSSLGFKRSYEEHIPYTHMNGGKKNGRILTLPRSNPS

Structure (SMILES) | IC50 [1] | IC50 [2]
CC[C@H](C)[C@H](NC(=O)CN)C(=O)N[C@H](C(=O)N[C@@H](CCC(=O)O)C(=O)N[C@@H](CCC(N)=O)C(=O)N[C@H]1CSSC[C@@H]2NC(=O)[C@H]([C@@H](C)CC)NC(=O)[C@H](CO)NC(=O)[C@H]([C@@H](C)O)NC(=O)[C@H](CSSC[C@H](NC(=O)[C@H](CC(C)C)NC(=O)[C@H](Cc3c[nH]cn3)NC(=O)[C@H](CCC(N)=O)NC(=O)[C@H](CC(N)=O)NC(=O)[C@@H](NC(=O)[C@H](Cc3ccccc3)NC(=O)CCCCC(=O)N(CC(=O)N(CCO[C@H]3O[C@H](CO)[C@@H](O)[C@H](O)[C@@H]3O)CCO[C@H]3O[C@H](CO)[C@@H](O)[C@H](O)[C@@H]3O)CC(=O)N(CCO[C@H]3O[C@H](CO)[C@@H](O)[C@H](O)[C@@H]3O)CCO[C@H]3O[C@H](CO)[C@@H](O)[C@H](O)[C@@H]3O)C(C)C)C(=O)NCC(=O)N[C@@H](CO)C(=O)N[C@@H](Cc3c[nH]cn3)C(=O)N[C@@H](CC(C)C)C(=O)N[C@@H](C(C)C)C(=O)N[C@@H](CCC(=O)O)C(=O)N[C@@H](C)C(=O)N[C@@H](CC(C)C)C(=O)N[C@@H](Cc3ccc(O)cc3)C(=O)N[C@@H](CC(C)C)C(=O)N[C@@H](C(C)C)C(=O)N[C@H](C(=O)NCC(=O)N[C@@H](CCC(=O)O)C(=O)N[C@@H](CCCNC(=N)N)C(=O)NCC(=O)N[C@@H](Cc3ccccc3)C(=O)N[C@@H](Cc3ccccc3)C(=O)N[C@@H](Cc3ccc(O)cc3)C(=O)N[C@H](C(=O)N3CCC[C@H]3C(=O)N[C@@H](CCCCNC(=O)CCCCC(=O)N(CC(=O)N(CCO[C@H]3O[C@H](CO)[C@@H](O)[C@H](O)[C@@H]3O)CCO[C@H]3O[C@H](CO)[C@@H](O)[C@H](O)[C@@H]3O)CC(=O)N(CCO[C@H]3O[C@H](CO)[C@@H](O)[C@H](O)[C@@H]3O)CCO[C@H]3O[C@H](CO)[C@@H](O)[C@H](O)[C@@H]3O)C(=O)N[C@H](C(=O)O)[C@@H](C)O)[C@@H](C)O)CSSC[C@@H](C(=O)N[C@@H](CC(N)=O)C(=O)O)NC(=O)[C@H](Cc3ccc(O)cc3)NC(=O)[C@H](CC(N)=O)NC(=O)[C@H](CCC(=O)O)NC(=O)[C@H](CC(C)C)NC(=O)[C@H](CCC(N)=O)NC(=O)[C@H](Cc3ccc(O)cc3)NC(=O)[C@H](CC(C)C)NC(=O)[C@H](CO)NC2=O)NC1=O)C(C)C [IOC-31] | 0.9 nM | –
CC[C@H](C)[C@H](NC(=O)CN)C(=O)N[C@H](C(=O)N[C@@H](CCC(=O)O)C(=O)N[C@@H](CCC(N)=O)C(=O)N[C@H]1CSSC[C@@H]2NC(=O)[C@H]([C@@H](C)CC)NC(=O)[C@H](CO)NC(=O)[C@H]([C@@H](C)O)NC(=O)[C@H](CSSC[C@H](NC(=O)[C@H](CC(C)C)NC(=O)[C@H](Cc3c[nH]cn3)NC(=O)[C@H](CCC(N)=O)NC(=O)[C@H](CC(N)=O)NC(=O)[C@@H](NC(=O)[C@H](Cc3ccccc3)NC(=O)CCCCCNC(=O)CCCCC(=O)N(CC(=O)N(CCO[C@H]3O[C@H](CO)[C@@H](O)[C@H](O)[C@@H]3O)CCO[C@H]3O[C@H](CO)[C@@H](O)[C@H](O)[C@@H]3O)CC(=O)N(CCO[C@H]3O[C@H](CO)[C@@H](O)[C@H](O)[C@@H]3O)CCO[C@H]3O[C@H](CO)[C@@H](O)[C@H](O)[C@@H]3O)C(C)C)C(=O)NCC(=O)N[C@@H](CO)C(=O)N[C@@H](Cc3c[nH]cn3)C(=O)N[C@@H](CC(C)C)C(=O)N[C@@H](C(C)C)C(=O)N[C@@H](CCC(=O)O)C(=O)N[C@@H](C)C(=O)N[C@@H](CC(C)C)C(=O)N[C@@H](Cc3ccc(O)cc3)C(=O)N[C@@H](CC(C)C)C(=O)N[C@@H](C(C)C)C(=O)N[C@H](C(=O)NCC(=O)N[C@@H](CCC(=O)O)C(=O)N[C@@H](CCCNC(=N)N)C(=O)NCC(=O)N[C@@H](Cc3ccccc3)C(=O)N[C@@H](Cc3ccccc3)C(=O)N[C@@H](Cc3ccc(O)cc3)C(=O)N[C@H](C(=O)N3CCC[C@H]3C(=O)N[C@@H](CCCCNC(=O)CCCCCNC(=O)CCCCC(=O)N(CC(=O)N(CCO[C@H]3O[C@H](CO)[C@@H](O)[C@H](O)[C@@H]3O)CCO[C@H]3O[C@H](CO)[C@@H](O)[C@H](O)[C@@H]3O)CC(=O)N(CCO[C@H]3O[C@H](CO)[C@@H](O)[C@H](O)[C@@H]3O)CCO[C@H]3O[C@H](CO)[C@@H](O)[C@H](O)[C@@H]3O)C(=O)N[C@H](C(=O)O)[C@@H](C)O)[C@@H](C)O)CSSC[C@@H](C(=O)N[C@@H](CC(N)=O)C(=O)O)NC(=O)[C@H](Cc3ccc(O)cc3)NC(=O)[C@H](CC(N)=O)NC(=O)[C@H](CCC(=O)O)NC(=O)[C@H](CC(C)C)NC(=O)[C@H](CCC(N)=O)NC(=O)[C@H](Cc3ccc(O)cc3)NC(=O)[C@H](CC(C)C)NC(=O)[C@H](CO)NC2=O)NC1=O)C(C)C [IOC-32] | – | 2.58 nM
